Like-named read-outs stand apart in the source and are kept apart here.
What was measured:
[1] = Metabolic stability in human liver microsomes
[2] = Metabolic stability in mouse liver microsomes; details: for Remaining (NCF = 60 min) / Remaining (T = 60 min): mouse liver microsomes; for Remaining (NCF = 60 min): no co-factor (no NADPH); for Remaining (T = 60 min): 60 min with NADPH; for CLint scaled / half-life / microsomal CLint: mouse, liver microsomes
THP1 cells = test: THP1-Dual cells, cell viability (CellTiter-Glo); format: cell-based
Outline: (§1)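 Readouts after overnight incubation: Quantiluc luminescence for Ifnb, Quantiblue for nfkb (both in supernatant) and CellTiter-Glo for viability. Before the DNA stimulus (2 ug/ml, lipofectamine transfection), THP1-Dual cells received compound at several dilutions for 4 h.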

h-cGAS = h-cGAS (Homo sapiens, UniProt Q8N884); test: Cell-free human cGAS enzyme inhibition assay (ATP depletion, Kinase-Glo Max); format: biochemical; details: 3 h; for inhibition at 1 µM: read-out: h-cGAS, conc. 1 μM; for inhibition at 10 µM: read-out: h-cGAS, conc. 10 μM
m-cGAS = m-cGAS (Mus musculus, UniProt Q8C6L5); test: Cell-free mouse cGAS enzyme inhibition assay (ATP depletion, Kinase-Glo Max); format: biochemical; details: 1 h; for inhibition at 1 µM: read-out: m-cGAS, conc. 1 μM; for inhibition at 10 µM: read-out: m-cGAS, conc. 10 μM
[3] = Protein binding in mouse brain homogenates; format: in vitro ADME; details: for recovery at 6 h / fraction unbound at 6 hr: brain homogenate; for fraction unbound at 6 hr: read-out: % BoundBrain (converted)
NFkB-SEAP = test: THP1-Dual cells transfected with DNA, nfkb expression (Quantiblue); format: cell-based; details: Homo sapiens; for inhibition at 10 µM: THP-1, 10 μM; for inhibition at 30 µM: THP-1, 30 μM
Outline: as §1

IFNB = test: THP1-Dual cells transfected with DNA, Ifnb expression (Quantiluc); format: cell-based; details: Homo sapiens; for inhibition at 10 µM: THP-1, 10 μM; for inhibition at 30 µM: THP-1, 30 μM
Outline: as §1

PDE4D2 = PDE4D2 (Homo sapiens, UniProt Q08499); test: Safety panel screening, PDE4D2 IMAP; format: biochemical; details: read-out: Mean percentage inhibition (%) at 10 μM, PDE4D2
5HT2B = 5HT2B (Homo sapiens, UniProt P41595); test: Safety panel screening, 5HT2B Ca2+ mobilization; format: cell-based; details: for inhibition at 10 µM: antagonist mode, read-out: Antagonist Mode Mean percentage inhibition (%) at 10 μM, 5HT2B
D1 = D1 (Homo sapiens, UniProt P21728); test: Safety panel screening, D1 cAMP assay; format: cell-based; details: for inhibition at 10 µM: antagonist mode, read-out: Antagonist Mode Mean percentage inhibition (%) at 10 μM, D1
[4] = Pharmacokinetic study, plasma and brain PK parameters after I.P. dosing; format: in vivo, mouse; details: 25 mg/Kg I.P.; for Kp / AUC(0-inf) / AUC(0-t) / MRT inf / half-life / Tmax / Cmax: mouse, ip; for Kp: brain/plasma, 25 mg/kg
Method: To test pharmacokinetics, TDI-6570 ([…] solution in water containing 0.2% Tween 80) was administered to 8-weeks old CD-1 male mice (n=3 for each time point) intraperitoneally (IP) and both plasma (EDTA-K2) and brain tissues were collected at various time points (0.5, 2, 4, 8 and 24 hours post drug administration). Transcardial perfusion were performed with saline prior to brain collection. Bioanalysis of brain tissue and plasma extracts were performed by LC-MS/MS.

hERG = hERG (Homo sapiens, UniProt Q12809); test: Safety panel screening, hERG automated patch clamp; format: cell-based; details: read-out: Mean percentage inhibition (%) at 10 μM, hERG
SET = SET (Homo sapiens, UniProt P31645); test: Safety panel screening, serotonin transporter neurotransmitter uptake; format: cell-based; details: read-out: Mean percentage inhibition (%) at 10 μM, SET
[5] = read-out: AUClast Ratio (brain/plasma)
[6] = read-out: Cmax Ratio (brain/plasma)
[7] = brain, read-out: AUCInf (Brain)
[8] = brain, read-out: AUClast (Brain)
[9] = brain, read-out: MRTInf_obs (Brain)
[10] = brain, read-out: T1/2 (Brain) (converted)
[11] = plasma, read-out: AUCInf (plasma)
[12] = plasma, read-out: AUClast (plasma)
[13] = plasma, read-out: MRTInf_obs (plasma)
[14] = plasma, read-out: T1/2 (plasma) (converted)
[15] = plasma, read-out: Tmax (plasma)

h-cGAS, sequence (Q8N884 whole entry): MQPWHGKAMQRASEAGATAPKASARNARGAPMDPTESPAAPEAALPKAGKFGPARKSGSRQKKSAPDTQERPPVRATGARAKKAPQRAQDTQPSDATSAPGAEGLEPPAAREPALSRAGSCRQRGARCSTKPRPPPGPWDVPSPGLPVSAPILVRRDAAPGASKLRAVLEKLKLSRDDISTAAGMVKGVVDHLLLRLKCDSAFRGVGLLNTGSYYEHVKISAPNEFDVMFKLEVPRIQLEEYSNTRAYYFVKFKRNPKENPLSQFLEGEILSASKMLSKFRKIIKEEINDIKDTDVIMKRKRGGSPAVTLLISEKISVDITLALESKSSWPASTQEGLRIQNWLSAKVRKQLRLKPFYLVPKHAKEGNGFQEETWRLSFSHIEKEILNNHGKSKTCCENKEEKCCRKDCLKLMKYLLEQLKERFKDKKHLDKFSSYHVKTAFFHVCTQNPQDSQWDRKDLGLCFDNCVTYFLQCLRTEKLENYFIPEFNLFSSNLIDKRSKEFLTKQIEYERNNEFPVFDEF
m-cGAS, sequence (Q8C6L5 whole entry): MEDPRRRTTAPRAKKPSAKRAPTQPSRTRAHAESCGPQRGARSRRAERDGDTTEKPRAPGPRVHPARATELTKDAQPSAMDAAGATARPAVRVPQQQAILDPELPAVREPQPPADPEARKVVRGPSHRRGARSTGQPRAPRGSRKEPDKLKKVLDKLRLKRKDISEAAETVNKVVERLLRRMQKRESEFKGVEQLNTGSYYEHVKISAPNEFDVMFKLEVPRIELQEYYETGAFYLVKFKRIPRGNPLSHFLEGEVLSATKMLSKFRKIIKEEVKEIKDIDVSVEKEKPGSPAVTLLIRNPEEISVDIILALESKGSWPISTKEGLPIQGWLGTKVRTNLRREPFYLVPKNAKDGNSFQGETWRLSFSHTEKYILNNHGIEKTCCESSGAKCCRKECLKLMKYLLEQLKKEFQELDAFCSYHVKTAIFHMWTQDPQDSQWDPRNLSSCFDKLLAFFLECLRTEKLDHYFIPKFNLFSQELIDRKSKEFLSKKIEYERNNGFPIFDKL
D1, sequence (P21728 whole entry): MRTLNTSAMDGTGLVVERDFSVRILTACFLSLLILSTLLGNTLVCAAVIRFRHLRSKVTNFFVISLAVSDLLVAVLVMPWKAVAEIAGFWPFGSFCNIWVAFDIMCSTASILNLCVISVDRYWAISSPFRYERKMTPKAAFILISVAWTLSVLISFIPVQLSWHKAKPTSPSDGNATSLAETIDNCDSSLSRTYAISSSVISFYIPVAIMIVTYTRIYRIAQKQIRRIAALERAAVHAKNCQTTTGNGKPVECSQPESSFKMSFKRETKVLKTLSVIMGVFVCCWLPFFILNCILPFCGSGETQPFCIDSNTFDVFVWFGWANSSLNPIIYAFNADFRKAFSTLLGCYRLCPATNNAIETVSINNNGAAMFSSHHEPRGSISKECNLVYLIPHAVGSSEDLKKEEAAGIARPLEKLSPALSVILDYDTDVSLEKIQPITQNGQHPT
5HT2B, sequence (P41595 whole entry, species assumed): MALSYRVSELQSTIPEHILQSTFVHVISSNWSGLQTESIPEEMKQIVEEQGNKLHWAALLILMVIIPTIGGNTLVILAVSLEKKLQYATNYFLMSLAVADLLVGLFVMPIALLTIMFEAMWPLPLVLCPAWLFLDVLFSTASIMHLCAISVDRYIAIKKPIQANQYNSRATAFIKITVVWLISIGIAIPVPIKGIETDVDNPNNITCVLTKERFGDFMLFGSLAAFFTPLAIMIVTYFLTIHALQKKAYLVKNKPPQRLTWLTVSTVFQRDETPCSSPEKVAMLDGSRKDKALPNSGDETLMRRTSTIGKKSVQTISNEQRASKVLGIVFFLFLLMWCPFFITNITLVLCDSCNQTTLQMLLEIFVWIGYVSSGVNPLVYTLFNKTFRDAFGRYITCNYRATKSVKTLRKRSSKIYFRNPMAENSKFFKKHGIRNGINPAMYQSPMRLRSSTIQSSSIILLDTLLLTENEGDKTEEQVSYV
PDE4D2, sequence (Q08499 303-809): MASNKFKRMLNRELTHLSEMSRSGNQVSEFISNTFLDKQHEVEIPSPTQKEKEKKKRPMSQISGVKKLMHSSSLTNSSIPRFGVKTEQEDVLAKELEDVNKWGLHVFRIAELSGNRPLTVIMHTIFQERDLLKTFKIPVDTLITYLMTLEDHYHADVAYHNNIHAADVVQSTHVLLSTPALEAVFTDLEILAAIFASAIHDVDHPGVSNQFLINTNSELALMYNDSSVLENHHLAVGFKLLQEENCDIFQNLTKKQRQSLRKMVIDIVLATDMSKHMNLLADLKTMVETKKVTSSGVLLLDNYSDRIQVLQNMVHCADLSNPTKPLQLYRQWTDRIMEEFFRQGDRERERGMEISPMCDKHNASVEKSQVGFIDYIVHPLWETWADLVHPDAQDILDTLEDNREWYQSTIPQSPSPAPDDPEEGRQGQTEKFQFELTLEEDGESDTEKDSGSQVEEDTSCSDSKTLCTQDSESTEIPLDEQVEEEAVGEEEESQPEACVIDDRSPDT
SET, sequence (P31645 whole entry): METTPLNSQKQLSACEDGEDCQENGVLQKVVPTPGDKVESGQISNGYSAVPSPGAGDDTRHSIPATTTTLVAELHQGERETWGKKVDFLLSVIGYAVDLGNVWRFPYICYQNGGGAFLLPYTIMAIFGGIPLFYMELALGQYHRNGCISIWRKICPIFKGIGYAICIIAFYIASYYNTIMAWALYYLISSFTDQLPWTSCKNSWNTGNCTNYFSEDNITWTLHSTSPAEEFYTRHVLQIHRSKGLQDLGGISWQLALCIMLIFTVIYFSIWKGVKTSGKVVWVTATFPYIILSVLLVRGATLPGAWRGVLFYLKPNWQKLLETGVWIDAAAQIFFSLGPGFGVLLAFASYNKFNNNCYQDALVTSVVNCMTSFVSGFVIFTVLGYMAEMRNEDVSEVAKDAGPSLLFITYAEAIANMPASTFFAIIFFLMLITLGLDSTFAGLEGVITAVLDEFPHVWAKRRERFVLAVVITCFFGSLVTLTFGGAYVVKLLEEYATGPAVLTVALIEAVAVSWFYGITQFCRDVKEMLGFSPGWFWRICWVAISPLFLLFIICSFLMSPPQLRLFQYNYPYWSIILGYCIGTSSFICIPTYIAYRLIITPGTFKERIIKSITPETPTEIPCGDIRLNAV
hERG, sequence (Q12809 whole entry): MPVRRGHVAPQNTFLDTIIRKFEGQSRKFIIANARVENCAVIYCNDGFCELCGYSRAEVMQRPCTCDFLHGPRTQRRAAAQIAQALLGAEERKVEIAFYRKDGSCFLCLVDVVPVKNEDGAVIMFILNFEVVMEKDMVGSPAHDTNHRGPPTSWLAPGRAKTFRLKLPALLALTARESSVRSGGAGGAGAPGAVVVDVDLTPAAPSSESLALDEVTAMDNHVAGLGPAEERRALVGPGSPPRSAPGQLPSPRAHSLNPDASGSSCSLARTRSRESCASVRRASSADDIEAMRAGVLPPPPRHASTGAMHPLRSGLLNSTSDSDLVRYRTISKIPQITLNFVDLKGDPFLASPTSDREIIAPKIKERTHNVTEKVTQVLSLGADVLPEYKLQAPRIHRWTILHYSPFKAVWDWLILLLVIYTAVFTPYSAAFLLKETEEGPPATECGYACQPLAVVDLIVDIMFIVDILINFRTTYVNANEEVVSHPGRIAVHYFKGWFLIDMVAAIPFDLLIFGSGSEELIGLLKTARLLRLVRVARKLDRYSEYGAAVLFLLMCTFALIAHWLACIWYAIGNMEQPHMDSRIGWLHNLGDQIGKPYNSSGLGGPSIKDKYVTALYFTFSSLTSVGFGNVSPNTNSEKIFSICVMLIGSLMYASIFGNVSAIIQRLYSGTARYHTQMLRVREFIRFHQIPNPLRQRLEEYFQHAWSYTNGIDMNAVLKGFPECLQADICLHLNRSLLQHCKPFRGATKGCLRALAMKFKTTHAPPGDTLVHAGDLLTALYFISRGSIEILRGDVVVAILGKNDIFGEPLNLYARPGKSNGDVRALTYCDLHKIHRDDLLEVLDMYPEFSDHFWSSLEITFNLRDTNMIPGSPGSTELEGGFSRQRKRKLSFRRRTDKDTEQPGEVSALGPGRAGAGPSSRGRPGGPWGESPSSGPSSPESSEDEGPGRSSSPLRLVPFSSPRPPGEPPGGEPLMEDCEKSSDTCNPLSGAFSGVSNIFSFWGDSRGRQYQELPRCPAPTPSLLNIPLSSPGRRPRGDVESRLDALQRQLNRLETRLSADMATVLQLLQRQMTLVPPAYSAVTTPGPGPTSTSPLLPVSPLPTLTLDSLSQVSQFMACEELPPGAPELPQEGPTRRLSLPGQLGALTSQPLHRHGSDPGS

Structure (SMILES): Cn1cc(-c2cc(Cl)c(Cl)c3oc4c(c23)CN(C(=O)CN)CC4)cn1 [Compound 33]
- Remaining (NCF = 60 min) ([1]; human liver microsomes, 60 min, no co-factor (no NADPH)): 109.6%
- Remaining (T = 60 min) ([1]; human liver microsomes, 60 min with NADPH): 87.6%
- CLint scaled ([1]; human, liver microsomes): < 8.6 mL/min/kg
- half-life ([1]; human, liver microsomes): > 2.42 h
- microsomal CLint ([1]; human, liver microsomes): < 9.6 µL/min/mg
- Remaining (NCF = 60 min) [2]: 90.0%
- Remaining (T = 60 min) [2]: 72.5%
- CLint scaled [2]: 38.5 mL/min/kg
- half-life [2]: 2.38 h
- microsomal CLint [2]: 9.7 µL/min/mg
- Cell viability 10 μM (THP1 cells): +++ (+, ++, and +++ mean the compound respectively shows 25-49%; 50-74%; or 75-100% viability to cells)
- Cell viability 30 μM (THP1 cells): + (+, ++, and +++ mean the compound respectively shows 25-49%; 50-74%; or 75-100% viability to cells)
- inhibition at 1 µM (h-cGAS): 50 to 74%
- inhibition at 10 µM (h-cGAS): 75 to 100%
- inhibition at 1 µM (m-cGAS): 75 to 100%
- inhibition at 10 µM (m-cGAS): 75 to 100%
- LogK [3]: >4.39
- % Remaining at 6 hr [3]: 90.87%
- recovery at 6 h [3]: < 82.4%
- fraction unbound at 6 hr [3]: < 4e-05
- inhibition at 10 µM (NFkB-SEAP): 25 to 49%
- inhibition at 30 µM (NFkB-SEAP): 75 to 100%
- inhibition at 10 µM (IFNB): 25 to 49%
- inhibition at 30 µM (IFNB): 75 to 100%

Structure (SMILES): Cn1cc(-c2cc(Cl)c(Cl)c3sc4c(c23)CN(C(=O)CO)CC4)cn1 [Compound 48]
- inhibition at 10 µM (PDE4D2): 56.4%
- Remaining (NCF = 60 min) [2]: 94.7%
- Remaining (T = 60 min) [2]: 88.1%
- CLint scaled [2]: 87.2 mL/min/kg
- half-life [2]: 0.0333 h
- microsomal CLint [2]: 679 µL/min/mg
- Cell viability 10 μM (THP1 cells): +++ (+, ++, and +++ mean the compound respectively shows 25-49%; 50-74%; or 75-100% viability to cells)
- Cell viability 30 μM (THP1 cells): +++ (+, ++, and +++ mean the compound respectively shows 25-49%; 50-74%; or 75-100% viability to cells)
- Agonist Mode Mean percentage activation (%) at 10 μM, 5HT2B (5HT2B): −0.48%
- inhibition at 10 µM (5HT2B): 34.5%
- inhibition at 1 µM (h-cGAS): 0 to 24%
- inhibition at 10 µM (h-cGAS): 50 to 74%
- Agonist Mode Mean percentage activation (%) at 10 μM, D1 (D1): 4.36%
- inhibition at 10 µM (D1): 6.62%
- AUC_%Extrap_obs (Brain) ([4]; brain): 0.813%
- AUClast/D (Brain) ([4]; brain): 5081 mg·h/mL
- Cmax (Brain) ([4]; brain): 19853 ng/mL
- Kp [4, 5]: 3.79
- Kp [4, 6]: 3.14
- AUC(0-inf) [4, 7]: 128000 ng·h/mL
- AUC(0-t) [4, 8]: 127000 ng·h/mL
- MRT inf [4, 9]: 4.69 h
- half-life [4, 10]: 3.45 h
- Tmax ([4]; brain, read-out: Tmax (Brain)): 2 h
- Cmax ([4]; plasma): 6320 ng/mL
- AUC(0-inf) [4, 11]: 33500 ng·h/mL
- AUC(0-t) [4, 12]: 33500 ng·h/mL
- MRT inf [4, 13]: 4.95 h
- half-life [4, 14]: 4.53 h
- Tmax [4, 15]: 1 h
- AUC_%Extrap_obs (plasma) ([4]; plasma): 0.0394%
- AUClast/D (plasma) ([4]; plasma): 1339 mg·h/mL
- inhibition at 10 µM (m-cGAS): 0 to 24%
- LogK [3]: >4.17
- % Remaining at 6 hr [3]: 92.46%
- recovery at 6 h [3]: < 91.1%
- fraction unbound at 6 hr [3]: < 0.0001
- inhibition at 10 µM (NFkB-SEAP): < 24%
- inhibition at 30 µM (NFkB-SEAP): 50 to 74%
- inhibition at 10 µM (hERG): 63%
- inhibition at 10 µM (SET): 46.2%
- inhibition at 10 µM (IFNB): 25 to 49%
- inhibition at 30 µM (IFNB): 50 to 74%

Structure (SMILES): O=C(CO)N1CCc2c(sc3c(Cl)c(Cl)cc(-c4cn[nH]c4)c23)C1 [Compound 63]
- inhibition at 10 µM (PDE4D2): 73.2%
- Cell viability 10 μM (THP1 cells): +++ (+, ++, and +++ mean the compound respectively shows 25-49%; 50-74%; or 75-100% viability to cells)
- Cell viability 30 μM (THP1 cells): +++ (+, ++, and +++ mean the compound respectively shows 25-49%; 50-74%; or 75-100% viability to cells)
- Agonist Mode Mean percentage activation (%) at 10 μM, 5HT2B (5HT2B): 22.36%
- inhibition at 10 µM (5HT2B): 49.4%
- inhibition at 10 µM (h-cGAS): 25 to 49%
- Agonist Mode Mean percentage activation (%) at 10 μM, D1 (D1): 6.19%
- inhibition at 10 µM (D1): 3.08%
- AUC_%Extrap_obs (Brain) ([4]; brain): 1.62%
- AUClast/D (Brain) ([4]; brain): 1354 mg·h/mL
- Cmax (Brain) ([4]; brain): 3721 ng/mL
- Kp [4, 5]: 0.989
- Kp [4, 6]: 0.734
- AUC(0-inf) [4, 7]: 34400 ng·h/mL
- AUC(0-t) [4, 8]: 33900 ng·h/mL
- MRT inf [4, 9]: 6.51 h
- half-life [4, 10]: 3.86 h
- Tmax ([4]; brain, read-out: Tmax (Brain)): 4 h
- Cmax ([4]; plasma): 5070 ng/mL
- AUC(0-inf) [4, 11]: 34300 ng·h/mL
- AUC(0-t) [4, 12]: 34200 ng·h/mL
- MRT inf [4, 13]: 4.76 h
- half-life [4, 14]: 4.79 h
- Tmax [4, 15]: 2 h
- AUC_%Extrap_obs (plasma) ([4]; plasma): 0.0536%
- AUClast/D (plasma) ([4]; plasma): 1370 mg·h/mL
- inhibition at 1 µM (m-cGAS): 25 to 49%
- inhibition at 10 µM (m-cGAS): 50 to 74%
- LogK [3]: >4.72
- % Remaining at 6 hr [3]: 108.27%
- recovery at 6 h [3]: < 88.4%
- fraction unbound at 6 hr [3]: < 2e-05
- inhibition at 10 µM (NFkB-SEAP): 25 to 49%
- inhibition at 30 µM (NFkB-SEAP): 75 to 100%
- inhibition at 10 µM (hERG): 49.7%
- inhibition at 10 µM (SET): 15.2%
- inhibition at 10 µM (IFNB): 50 to 74%
- inhibition at 30 µM (IFNB): 75 to 100%

— patent US20250163052A1, “cGAS INHIBITORS AND USES THEREOF” (Cornell University, priority 2022, published 2025)
